Experimental data taken from patent US20250093270A1, “Method for Detecting Enzyme Activity and Fluorescent Probe Used in Said Method” (priority 2022, published 2025).

Assays:
[1] = Microdevice compatibility: fluorescence image of a microdevice loaded with probe and reacted with a thiol (leakage to oil, adsorption to well); conditions: for leakage of the probe enclosed in the well of the microdevice to the oil: sealing oil; for adsorption to the microdevice (inner wall of the reaction vessel / well): reaction vessel formed of CYTOP
Method: (§1) An enzyme stock solution was diluted with an assay buffer containing a fluorescent probe. Next, 40 μL of a reaction mixture was added to the microdevice (Simoa disk; Quanterx Corporation). Next, 80 μL of FC-70 (Sigma-Aldrich) was introduced into the microdevice to wash off the excess reaction mixture and form W/O droplets. A fluorescence signal of the catalytically produced fluorescent dye was measured under a fluorescence microscope, and the enzyme activity in the chamber was measured.
(§2) Fluorescence images were acquired using a 20× dry objective (Plan Apo 20x), an sCMOS camera (ORCA-FusionC14440, Hamamatsu Photonics K.K.), a white LED lighting unit (X-Cite Xylis, Opto Science, Inc.), and a fluorescence microscope (Ti2, Nikon Corporation) equipped with a motorized stage. In the analysis, measurement was performed using a solution containing sSiR (10 μM) as an internal standard and the focus was adjusted using fluorescence. Images were acquired in tile scan mode at full focus.
FIG. 5(a) illustrates a photograph of a state in which each of three kinds of probes containing 2- and 6-position unsubstituted BODIPY and GSH are supplemented with octanol and water. FIG. 5(b) illustrates a fluorescence image of a microdevice equipped with a probe and reacted with a thiol.
FIG. 5(d) illustrates fluorescence images of a microdevice containing human plasma that was loaded with a fluorescent probe (30 μM) in HEPES-buffer (10 mM, pH 7.4, containing 0.1% CHAPS) and incubated at 37° C. for 1.5 hours.
FIG. 7(a) illustrates a photograph (water-octanol distribution experiment) of a state in which each probe and GSH are supplemented with octanol and water. FIG. 7(b) illustrates a fluorescence image of a microdevice equipped with a probe and reacted with a thiol.
(§3) The image was acquired after incubation at 25° C. for 30 minutes.

[2] = Water-octanol distribution experiment (probe and GSH supplemented with octanol and water); format: physicochemical; conditions: for distribution to octanol (lipid-soluble solvent) side: water-octanol, with GSH
[3] = Comparison of water solubility by difference in elution time of LC-MS (C18); format: physicochemical; conditions: C18, ammonium formate/acetonitrile gradient
Method: FIG. 10 illustrates the analysis of a mixture of five compounds by LC-MS and the extracted ion chromatogram of each compound shown with the display color. The results of the diphosphonic acid form, the dicarboxylic acid form, the disulfonic acid form, the monosulfonic acid form, and the monocarboxylic acid form are shown from the left.
The compound was eluted with a linear gradient of A/B=100/0 at 0.5 minutes and 100/0 to 0/100 at 3 minutes detected at 500 nm (eluent A: H2O containing 10 mM ammonium formate; eluent B: acetonitrile 80%, H2O 20% containing 10 mM ammonium formate).

cholinesterase (ChE) = conditions: blood diluted to 1/10,000; corresponding to a total enzyme concentration of 1 pM
Method: as §1, §2
FIG. 5(c) illustrates a schematic diagram of a coupled assay of an acetylthiocholine system for detection of cholinesterase (ChE) activity.
as §3
The upper view is a fluorescence image of a microdevice equipped with a probe (30 μM), acetylthiocholine (1 mM), and a 1/10,000-fold diluted plasma sample of a healthy human subject. […]

acetylcholinesterase = assay: Acetylthiocholine coupled assay in a microdevice with the nitrophenol-type probe; format: biochemical; conditions: probe 1 μM, acetylthiocholine iodide 1 mM, human plasma 1,000-fold dilution, 90 minutes at 37° C.
Method: The images were acquired after 90 minutes at 37° C.

Row | Compound | leakage of the probe enclosed in the well of the microdevice to the oil [1] | adsorption to the microdevice (inner wall of the reaction vessel / well) [1] | also measured
1 | 2,6-sulfo-nitroolefin BODIPY [compound 2] | suppressed | not observed | –
2 | 8-(p-nitroolefin)-BODIPY [2- and 6-position unsubstituted BODIPY, reference compound] | dissolved in oil | – | lipid solubility [2]: high lipid solubility
3 | 2,6-diPO3H2 Nitroolefin BODIPY [compound 17] | – | no adsorption to the microdevice was observed | water solubility evaluated by elution time of LC-MS [3]: greatly improved; water solubility ([1]; inferred from behaviour in the microdevice): high water solubility; λ (cholinesterase (ChE)): 0.03
4 | 2-CO2H Nitroolefin BODIPY [compound 4] | – | the same result as in Example 1 | lipid solubility [2]: particularly highly lipid-soluble; distribution to octanol (lipid-soluble solvent) side [2]: a large amount of the monocarboxylic acid form was distributed to octanol
5 | 2,6-diCO2H Nitroolefin BODIPY [compound 9] | – | the same result as in Example 1 | distribution to octanol (lipid-soluble solvent) side [2]: partially observed
6 | COc1cc(OC)c(C2=C3C=CC(=O)C=C3[Si](C)(C)c3cc(Oc4ccc(C)cc4[N+](=O)[O-])ccc32)cc1C [2.4-dinitro sTM] | – | – | detection of acetylcholinesterase activity in blood (acetylcholinesterase): detected
7 | 2-sulfo-nitroolefin BODIPY [compound 1] | suppressed | adsorption of the probe to the inner wall of the reaction vessel | –
